Measurements published in PMC5355302, “Arg-Leu-Tyr-Glu tetrapeptide inhibits tumor progression by suppressing angiogenesis and vascular permeability via VEGF receptor-2 antagonism” (Oncotarget, 2016).
Where a SMILES comes first, the peptide text is derived from it. Where no end group is shown, it is not given here.

What was measured:
HCT116 tumors = assay: HCT116 human colon cancer xenograft in nude mice; format: in vivo, mouse; details: RLYE 0.5 mg/kg/day i.p., CPT-11 17 mg/kg every 5th day, alone or combined, n = 7 per group
Procedure: Figure 7 RLYE inhibits tumor growth and metastasis by suppressing tumor angiogenesis A. Representative tumors isolated from 29-days-old B16F1 tumor-bearing C57BL/6J mice injected i.p. with saline or RLYE (1 mg/kg) every day. B. Tumor weight on day 29 after injection of B16F1 cells (n = 10 mice per group). C. […] D. Representative images for metastatic nodules of the lungs isolated from C57BL/6J mice, which were injected i.v. with B16F10 melanoma cells and treated with saline or RLYE for 3 weeks. E. Quantification of the number of lung metastatic nodules. […] Representative tumors from 30-day-old HCT116 tumor-bearing mice. (G) Tumor burden was measured every 3 days (n = 8 mice per group). (H) Functional vascularization was quantified by measuring hemoglobin concentration in HCT116 tumor tissues (n = 5). […]
Figure 8 RLYE inhibits vascular leakage and enhances tumor chemosensitivity A. Endothelial cell permeability was determined by diffusion of [^14C]-sucrose through HUVEC monolayers treated with 20 ng/ml of VEGF alone or in combination with RLYE (n = 3). B. Phosphorylation of VE-cadherin was determined in cell lysates of HUVECs treated with 20 ng/ml of VEGF alone or in combination with RLYE. […] Immunostaining of VE-cadherin in endothelial monolayer was determined by confocal microscopy. […] Tumor vascular leakage was determined by the Evans blue method (E and F) or FITC-dextran image assay (G and H). […]

[1] = half-life in culture medium; format: in vitro ADME; details: M199 culture medium with 10% heat-inactivated FBS; unpublished data
HUVECs [2] = assay: MTT cell viability, HUVECs; format: cell-based, human; details: 24 h
Procedure: (§1) Mouse melanoma B16F1 and B16F10 cells and human HCT116 colon cancer cells were obtained from American Type Culture Collection (Manassas, VA) and cultured in RPMI medium supplemented with 10% FBS, 1 mM sodium pyruvate, 10 mM 4-(2-hydroxyethyl)-1-piperazineethanesulfonic acid, and 100 U/ml penicillin-streptomycin in a humidified atmosphere of 5% CO2 at 37°C. Human umbilical vein endothelial cells (HUVECs) were maintained and cultured in M199 as described previously, and only passages 2-7 were used for all experiments. Human multiple myeloma IM-9 and RPMI 8226 cells were obtained from Korean Cell Line Bank (Seoul, Korea). The cells were cultured in RPMI-1640 medium in a humidified CO2 incubator. Cell viability or cytotoxicity was evaluated by 3-[4,5-cimethylthiazol-2-yl]-2,5-diphenyl tetrazolium bromide (MTT, Sigma-Aldrich) assay.
(§2) www.impactjournals.com/oncotarget/ Oncotarget, Supplementary Materials 2016
(§3) B. cells were treated the indicated concentration of RLYE for 24 h. Cell viability was determined by MTT assay. […]

half-life in blood = format: in vivo; details: unpublished data
HCT116 cells = assay: MTT cell viability, HCT116 cells; format: cell-based, human; details: up to 30 nM, 24 h
Procedure: as §1, §2, §3

HUVECs [3] = assay: confocal microscopy of FITC-RLYE binding to HUVECs; set-up: species or system human
Procedure: Figure 5 RLYE binds to endothelial cells through binding to VEGFR-2 A and B. HUVECs were incubated with FITC-conjugated RLYE (RL, 15 nM) before or after treatment with VEGF-A (VE, 100 ng) for 30 min. Cells were analyzed by flow cytometry (A) and quantified (B). Data are the means ± SD (n = 5). **P < 0.01 versus RLYE alone. C and D. HUVEC lysates were incubated with biotinylated RLYE (Bio-RLYE, 0.15 or 1.5 nM), followed by precipitation with streptavidin-agarose beads. The red arrow indicates VEGFR-2 protein bands on a longer exposure film. The precipitates were separated by SDS-PAGE. VEGFR-2 or VEGFR-1 expression was assessed by Western blot analysis. E. HUVECs were treated with or without VEGF-A (10 ng/ml) for 30 min, followed by incubation with FITC-conjugated RLYE (100 ng/ml, green). Cells were incubated with a TRITC-conjugated CD31 antibody (1:100, red) or DAPI (blue). […]
For immunocytochemistry, HUVECs were grown to confluence on glass coverslips coated with 2% gelatin and treated with or without VEGF-A (10 ng/ml) for 30 min, followed by incubation with FITC-RLYE (100 ng/ml). […] Images were photographed and analyzed using a confocal fluorescence microscope. Nuclear staining was performed with 4’, 6-diamidino-2-phenylindole (DAPI, 1 ng/ml), and apoptotic cells were detected using a terminal deoxynucleotidyl transferase dUTP nick end labeling (TUNEL) kit (Roche, Korea).

HUVECs [4] = assay: FACS binding of FITC-conjugated RLYE to HUVECs; set-up: species or system human; details: FITC-conjugated RLYE 15 nM, n = 5
Procedure: Figure 5 RLYE binds to endothelial cells through binding to VEGFR-2 A and B. HUVECs were incubated with FITC-conjugated RLYE (RL, 15 nM) before or after treatment with VEGF-A (VE, 100 ng) for 30 min. Cells were analyzed by flow cytometry (A) and quantified (B). Data are the means ± SD (n = 5). **P < 0.01 versus RLYE alone. C and D. HUVEC lysates were incubated with biotinylated RLYE (Bio-RLYE, 0.15 or 1.5 nM), followed by precipitation with streptavidin-agarose beads. The red arrow indicates VEGFR-2 protein bands on a longer exposure film. The precipitates were separated by SDS-PAGE. VEGFR-2 or VEGFR-1 expression was assessed by Western blot analysis. E. HUVECs were treated with or without VEGF-A (10 ng/ml) for 30 min, followed by incubation with FITC-conjugated RLYE (100 ng/ml, green). Cells were incubated with a TRITC-conjugated CD31 antibody (1:100, red) or DAPI (blue). Confocal microscopy was performed for analyzing binding of RLYE on HUVECs. Scale bar, 10 μm.
HUVECs cultured for 24 h after plating in 60 mm-culture dishes. Cells from subconfluent cultures were gently detached from wells with PBS containing 5 mM EDTA, washed three times with PBS, and resuspended in PBS containing 2% FBS/0.1% bovine serum albumin. Thereafter, they were incubated with FITC-conjugated RLYE (15 nM) before or after treatment with VEGF (100 ng/ml) for 30 min on ice, fixed in 2% paraformaldehyde, and analyzed by flow cytometry in a fluorescence-activated cell sorter (FACSCalibur, Becton Dickinson, Franklin Lakes, NJ).

endothelial cells = system: endothelial cells; set-up: method as in PMID 15013002; details: cited from earlier work
VEGF-A [5] = details: cited from earlier work
Text: Therefore, the VEGF-A/VEGFR-2 system is widely considered a main target of the therapeutic treatment for tumor angiogenesis. Ligation of VEGFR-2 triggers strong proangiogenic signals including p38MAPK/ERK, Src/FAK, and Akt/eNOS through VEGFR-2 phosphorylation, which promote angiogenesis and VEGFR-2 internalization.

VEGF-A [6] = details: read-out: IC50 for VEGF-A; endothelial cell culture conditions; cited from earlier work
VEGFR-2 = details: read-out: IC50 for VEGFR-2; endothelial cell culture conditions; cited from earlier work
[7] = target: human recombinant VEGF receptor-2 (rhVEGFR-2) (human) (UniProt P35968); assay: SPR; rhVEGFR-2 immobilised on an activated CM5 chip; RLYE at different concentrations flowed in HBS-EP (10 mM Hepes, 150 mM NaCl, 3 mM EDTA, 0.005% Tween-20) at 25 μl/min, 120 sec injection; Kd from a steady state binding model
Chain of human recombinant VEGF receptor-2 (rhVEGFR-2) (human) (P35968 20-764): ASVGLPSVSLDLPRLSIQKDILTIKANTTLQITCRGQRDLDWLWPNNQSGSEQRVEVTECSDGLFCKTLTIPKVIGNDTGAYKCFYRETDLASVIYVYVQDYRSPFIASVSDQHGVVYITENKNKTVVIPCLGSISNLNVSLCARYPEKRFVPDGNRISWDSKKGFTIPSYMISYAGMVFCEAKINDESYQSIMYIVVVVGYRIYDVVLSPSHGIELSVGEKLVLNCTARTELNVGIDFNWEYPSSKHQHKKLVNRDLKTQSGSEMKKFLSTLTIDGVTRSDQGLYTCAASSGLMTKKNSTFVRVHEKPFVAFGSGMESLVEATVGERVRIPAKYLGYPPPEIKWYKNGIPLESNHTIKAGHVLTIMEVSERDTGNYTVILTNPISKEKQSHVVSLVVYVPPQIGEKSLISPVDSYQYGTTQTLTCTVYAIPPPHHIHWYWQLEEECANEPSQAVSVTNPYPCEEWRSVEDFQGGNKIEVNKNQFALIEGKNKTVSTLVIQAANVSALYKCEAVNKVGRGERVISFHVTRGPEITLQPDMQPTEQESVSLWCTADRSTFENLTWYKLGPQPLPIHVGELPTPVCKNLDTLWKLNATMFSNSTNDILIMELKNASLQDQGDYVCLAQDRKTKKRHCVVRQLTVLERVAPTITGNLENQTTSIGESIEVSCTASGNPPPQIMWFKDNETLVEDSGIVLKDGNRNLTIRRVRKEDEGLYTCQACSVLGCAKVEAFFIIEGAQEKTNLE

CCc1c2c(nc3ccc(OC(=O)N4CCC(N5CCCCC5)CC4)cc13)-c1cc3c(c(=O)n1C2)COC(=O)[C@]3(O)CC [CPT-11, irinotecan]
tumor growth in mice bearing HCT116 colon tumor (HCT116 tumors): significantly inhibited tumor growth

CC(C)C[C@H](NC(=O)[C@@H](N)CCCNC(=N)N)C(=O)N[C@@H](Cc1ccc(O)cc1)C(=O)N[C@@H](CCC(=O)O)C(=O)O [RLYE, Arg-Leu-Tyr-Glu] (H-RLYE-OH)
half-life [1]: > 18 h
cytotoxicity against HUVECs (HUVECs [2]): did not induce any cytotoxicity
half-life in blood (half-life in blood): 1.2 h
cytotoxic effect on cultured HCT116 cells (HCT116 cells): no cytotoxic effect

FITC-conjugated RLYE: fluorescein isothiocynate (FITC)-conjugated RLYE, purchased from Peptron (also: FITC conjugated, position not given here)
binding to the surface of HUVECs (confocal) (HUVECs [3]; FITC-conjugated RLYE 100 ng/ml): bound
binding to the surface of HUVECs after pretreatment with VEGF-A (confocal) (HUVECs [3]; VEGF-A 10 ng/ml 30 min, then FITC-conjugated RLYE 100 ng/ml): effectively blocked
binding to the surface of control HUVECs (HUVECs [4]; 30 min on ice, flow cytometry): bound
blocking of binding to HUVECs by post-incubation with VEGF-A (HUVECs [4]; VEGF 100 ng/ml after the peptide): not
binding to HUVECs after pre-incubation with VEGF-A (HUVECs [4]; VEGF 100 ng/ml before the peptide): blocked

Lys-Leu-Tyr-Asp [KLYD, tetrapeptide derived from the kringle 5 of plasminogen]
inhibitory effect on endothelial cell proliferation (endothelial cells): potent inhibitory effect

aflibercept: soluble decoy VEGFR-1
affinity to VEGF-A relative to bevacizumab (VEGF-A [5]): several hundred-fold greater

bevacizumab: anti-VEGF antibody
IC50 (VEGF-A [6]): 0.15 nM

ramucirumab: fully humanized monoclonal antibody bound to the extracellular domain of VEGFR-2
IC50 (VEGFR-2): 1 to 2 nM

RLYE [Arg-Leu-Tyr-Glu tetrapeptide (RLYE)]
Kd [7]: 9000 nM
